Reference: PubChem BioAssay AID2060485 (Molecular Pharmacology Branch, DTP, NCI, 2025)
pIC50: −log10 of the molar value.

Test system: A375 multi-cell spheroids with HUVEC/MSC, viability
Assay: Anticancer human tumor A375 cell line growth inhibition [GQUAD];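 further: spheroids exposed to compounds for seven days before readout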
Conditions: for pIC50: curve of first compound; for viability, T/C: stronger effect = lower value
How it was run: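 Multi-cell-type spheroids of tumor cells with HUVEC and mesenchymal stem cells, treated with drug combinations. Concentrations descend in half-log steps from near clinical Cmax, or from 10 microM where Cmax is unknown; viability read-out.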

[1] = second compound 0.0316 µM, first compound 0.0316 µM
[2] = second compound 0.0316 µM, first compound 0.1 µM
[3] = second compound 0.0316 µM, first compound 0.316 µM
[4] = second compound 0.0316 µM, first compound 1 µM
[5] = second compound 0.0316 µM, first compound 3.16 µM
[6] = second compound 0.0316 µM, first compound 10 µM
[7] = second compound 0.1 µM, first compound 0.0316 µM
[8] = second compound 0.1 µM, first compound 0.1 µM
[9] = second compound 0.1 µM, first compound 0.316 µM
[10] = second compound 0.1 µM, first compound 1 µM
[11] = second compound 0.1 µM, first compound 3.16 µM
[12] = second compound 0.1 µM, first compound 10 µM
[13] = second compound 0.316 µM, first compound 0.0316 µM
[14] = second compound 0.316 µM, first compound 0.1 µM
[15] = second compound 0.316 µM, first compound 0.316 µM
[16] = second compound 0.316 µM, first compound 1 µM
[17] = second compound 0.316 µM, first compound 3.16 µM
[18] = second compound 0.316 µM, first compound 10 µM
[19] = second compound 1 µM, first compound 0.0316 µM
[20] = second compound 1 µM, first compound 0.1 µM
[21] = second compound 1 µM, first compound 0.316 µM
[22] = second compound 1 µM, first compound 1 µM
[23] = second compound 1 µM, first compound 3.16 µM
[24] = second compound 1 µM, first compound 10 µM
[25] = second compound 3.16 µM, first compound 0.0316 µM
[26] = second compound 3.16 µM, first compound 0.1 µM
[27] = second compound 3.16 µM, first compound 0.316 µM
[28] = second compound 3.16 µM, first compound 1 µM
[29] = second compound 3.16 µM, first compound 3.16 µM
[30] = second compound 3.16 µM, first compound 10 µM
[31] = second compound 10 µM, first compound 0.0316 µM
[32] = second compound 10 µM, first compound 0.1 µM
[33] = second compound 10 µM, first compound 0.316 µM
[34] = second compound 10 µM, first compound 1 µM
[35] = second compound 10 µM, first compound 3.16 µM
[36] = second compound 10 µM, first compound 10 µM

In the case of Cc1cccc(N(C)C(=O)C2C(O)CCN2c2nc(C)cc(C(F)(F)F)c2C#N)c1 (stereo not drawn) + CN(C)c1ccc(Nc2c3ccc(NC(=O)CCN4CCCC4)cc3nc3cc(NC(=O)CCN4CCCC4)ccc23)cc1, the pIC50 (second compound 0.0316 µM) was under 5.00, the pIC50 (second compound 0.1 µM) was under 5.00 and the pIC50 (second compound 0.316 µM) was under 5.00. For the same compound, the pIC50 (second compound 1 µM) was under 5.00, the pIC50 (second compound 3.16 µM) was under 5.00 and the pIC50 (second compound 10 µM) was under 5.00. It also gave a viability, T/C [1] of 103%, a viability, T/C [2] of 98.6% and a viability, T/C [3] of 104%. The viability, T/C [4] was 105%, the viability, T/C [5] was 105% and the viability, T/C [6] was 102%. For the same compound, the viability, T/C [7] was 113%, the viability, T/C [8] was 104% and the viability, T/C [9] was 99.8%. It also gave a viability, T/C [10] of 97%, a viability, T/C [11] of 107% and a viability, T/C [12] of 102%. For the same compound, the viability, T/C [13] was 113%, the viability, T/C [14] was 101% and the viability, T/C [15] was 101%. The viability, T/C [16] was 109%, the viability, T/C [17] was 99.1% and the viability, T/C [18] was 95.7%. For the same compound, the viability, T/C [19] was 107%, the viability, T/C [20] was 98.3% and the viability, T/C [21] was 97.3%. It also gave a viability, T/C [22] of 96.9%, a viability, T/C [23] of 104% and a viability, T/C [24] of 97.3%. The viability, T/C [25] was 117%, the viability, T/C [26] was 106% and the viability, T/C [27] was 93.9%. For the same compound, the viability, T/C [28] was 101%, the viability, T/C [29] was 98% and the viability, T/C [30] was 100%. It also gave a viability, T/C [31] of 95.7%, a viability, T/C [32] of 96.3% and a viability, T/C [33] of 89.9%. For the same compound, the viability, T/C [34] was 93.7%, the viability, T/C [35] was 96.5% and the viability, T/C [36] was 74.3%.

For CC(C)n1c(=O)n(C)c2cnc3cc(F)c(-c4ccc(OCCCN5CCCCC5)nc4)cc3c21 + Cc1[nH]c2ccc(F)cc2c1-c1nc2c3cccnc3c3ncccc3c2[nH]1, the pIC50 (second compound 0.0316 µM) was under 5.00, the pIC50 (second compound 0.1 µM) was under 5.00 and the pIC50 (second compound 0.316 µM) was under 5.00. It also gave a pIC50 (second compound 1 µM) of under 5.00, a pIC50 (second compound 3.16 µM) of 5.30 and a pIC50 (second compound 10 µM) of 5.02. The viability, T/C [1] was 92.3%, the viability, T/C [2] was 93.3% and the viability, T/C [3] was 91.1%. For the same compound, the viability, T/C [4] was 96.3%, the viability, T/C [5] was 109% and the viability, T/C [6] was 91.1%. The viability, T/C [7] was 98.2%, the viability, T/C [8] was 89.7% and the viability, T/C [9] was 97.2%. For the same compound, the viability, T/C [10] was 95.9%, the viability, T/C [11] was 113% and the viability, T/C [12] was 96.3%. It also gave a viability, T/C [13] of 92.5%, a viability, T/C [14] of 91.8% and a viability, T/C [15] of 112%. For the same compound, the viability, T/C [16] was 96.7%, the viability, T/C [17] was 106% and the viability, T/C [18] was 90%. The viability, T/C [19] was 89.9%, the viability, T/C [20] was 98.1% and the viability, T/C [21] was 97.8%. It also gave a viability, T/C [22] of 96%, a viability, T/C [23] of 116% and a viability, T/C [24] of 93.7%. For the same compound, the viability, T/C [25] was 83.5%, the viability, T/C [26] was 80.2% and the viability, T/C [27] was 92.7%. For the same compound, the viability, T/C [28] was 73%, the viability, T/C [29] was 65.2% and the viability, T/C [30] was 29.3%. It also gave a viability, T/C [31] of 106%, a viability, T/C [32] of 101% and a viability, T/C [33] of 101%. For the same compound, the viability, T/C [34] was 88.4%, the viability, T/C [35] was 81.2% and the viability, T/C [36] was 47.7%.

In the case of CCc1c2c(nc3ccc(O)cc13)-c1cc3c(c(=O)n1C2)COC(=O)[C@]3(O)CC + Cc1cnc(CNC(=O)c2c(=O)c3ccc(N4CCCN(C)CC4)nc3n3c2sc2ccccc23)cn1, the pIC50 (second compound 0.0316 µM) was over 9.00, the pIC50 (second compound 0.1 µM) was over 9.00 and the pIC50 (second compound 0.316 µM) was over 9.00. The pIC50 (second compound 1 µM) was over 9.00, the pIC50 (second compound 3.16 µM) was over 9.00 and the pIC50 (second compound 10 µM) was over 9.00. The viability, T/C (second compound 0.0316 µM, first compound 0.000999 µM) was 33.5%, the viability, T/C (second compound 0.0316 µM, first compound 0.00316 µM) was 15.6% and the viability, T/C (second compound 0.0316 µM, first compound 0.00999 µM) was 15.1%. It also gave a viability, T/C [1] of 13.5%, a viability, T/C (second compound 0.0316 µM, first compound 0.0999 µM) of 5.18% and a viability, T/C [3] of 0.45%. For the same compound, the viability, T/C (second compound 0.1 µM, first compound 0.000999 µM) was 26.9%, the viability, T/C (second compound 0.1 µM, first compound 0.00316 µM) was 14.8% and the viability, T/C (second compound 0.1 µM, first compound 0.00999 µM) was 15.6%. The viability, T/C [7] was 15.2%, the viability, T/C (second compound 0.1 µM, first compound 0.0999 µM) was 5.86% and the viability, T/C [9] was 0.41%. The viability, T/C (second compound 0.316 µM, first compound 0.000999 µM) was 26.3%, the viability, T/C (second compound 0.316 µM, first compound 0.00316 µM) was 17.1% and the viability, T/C (second compound 0.316 µM, first compound 0.00999 µM) was 14.8%. For the same compound, the viability, T/C [13] was 11.9%, the viability, T/C (second compound 0.316 µM, first compound 0.0999 µM) was 4.76% and the viability, T/C [15] was 0.14%. For the same compound, the viability, T/C (second compound 1 µM, first compound 0.000999 µM) was 22%, the viability, T/C (second compound 1 µM, first compound 0.00316 µM) was 15.4% and the viability, T/C (second compound 1 µM, first compound 0.00999 µM) was 14.2%. It also gave a viability, T/C [19] of 10.1%, a viability, T/C (second compound 1 µM, first compound 0.0999 µM) of 4.05% and a viability, T/C [21] of 0.08%. The viability, T/C (second compound 3.16 µM, first compound 0.000999 µM) was 19.4%, the viability, T/C (second compound 3.16 µM, first compound 0.00316 µM) was 15.9% and the viability, T/C (second compound 3.16 µM, first compound 0.00999 µM) was 14.4%. It also gave a viability, T/C [25] of 9.47%, a viability, T/C (second compound 3.16 µM, first compound 0.0999 µM) of 0.08% and a viability, T/C [27] of 0.1%. It also gave a viability, T/C (second compound 10 µM, first compound 0.000999 µM) of 18.4%, a viability, T/C (second compound 10 µM, first compound 0.00316 µM) of 16% and a viability, T/C (second compound 10 µM, first compound 0.00999 µM) of 14.6%. For the same compound, the viability, T/C [31] was 7.32%, the viability, T/C (second compound 10 µM, first compound 0.0999 µM) was 0.15% and the viability, T/C [33] was 0.15%.

In the case of COc1ccc([C@@H](O)c2cc(-c3ncnc4cc(N5CCOCC5)ccc34)c(F)cc2Cl)nn1 + Cc1[nH]c2ccc(F)cc2c1-c1nc2c3cccnc3c3ncccc3c2[nH]1, the pIC50 (second compound 0.0316 µM) was under 5.00, the pIC50 (second compound 0.1 µM) was under 5.00 and the pIC50 (second compound 0.316 µM) was under 5.00. For the same compound, the pIC50 (second compound 1 µM) was under 5.00, the pIC50 (second compound 3.16 µM) was under 5.00 and the pIC50 (second compound 10 µM) was under 5.00. For the same compound, the viability, T/C [1] was 105%, the viability, T/C [2] was 108% and the viability, T/C [3] was 103%. For the same compound, the viability, T/C [4] was 126%, the viability, T/C [5] was 100% and the viability, T/C [6] was 77.5%. The viability, T/C [7] was 106%, the viability, T/C [8] was 102% and the viability, T/C [9] was 105%. For the same compound, the viability, T/C [10] was 112%, the viability, T/C [11] was 96.6% and the viability, T/C [12] was 85.6%. The viability, T/C [13] was 103%, the viability, T/C [14] was 112% and the viability, T/C [15] was 105%. It also gave a viability, T/C [16] of 110%, a viability, T/C [17] of 95.3% and a viability, T/C [18] of 87.9%. It also gave a viability, T/C [19] of 106%, a viability, T/C [20] of 112% and a viability, T/C [21] of 109%. The viability, T/C [22] was 113%, the viability, T/C [23] was 98.2% and the viability, T/C [24] was 68.1%. The viability, T/C [25] was 101%, the viability, T/C [26] was 96% and the viability, T/C [27] was 101%. The viability, T/C [28] was 79.1%, the viability, T/C [29] was 77.2% and the viability, T/C [30] was 50.4%. For the same compound, the viability, T/C [31] was 113%, the viability, T/C [32] was 107% and the viability, T/C [33] was 122%. It also gave a viability, T/C [34] of 97.2%, a viability, T/C [35] of 78.2% and a viability, T/C [36] of 56.3%.
